Where two headings read alike, the source gives them in different places.
Target: T1, human GPR40 (Homo sapiens, UniProt O14842)
T1 construct: expressed in transfected cells
Assay: Inositol Phosphate Turnover (IP1) Assay 2
Assay type: cell-based
Experimental: Human GPR40 stable cell-lines were generated in HEK cells. The expression plasmids were transfected using lipofectamine (Life Technologies) following manufacturer's instructions. Stable cell-lines were generated following drug selection and single cell cloning.
The assay is performed in 384-well format. HEK cells stably expressing human GPR40 are plated at 15,000 cells per well in growth medium (DMEM/10% fetal calf serum). Cell plates are then incubated 16 hours at 37 degrees in a 5% CO2 incubator.
Measurement of Inositol Phosphate Turnover (IP1) is performed using the CisBio IP-One kit (Part number 62IPAPEB). After the 16 hour incubation, the cells are washed with HEPES buffer and 10 ul of stimulation buffer (prepared as described in the kit) is added to each well. In a separate plate, compounds are diluted in DMSO (400-fold over the final concentration in the assay well) and 25 nl is acoustically transferred to the appropriate well in the assay cell plate. The plates are then incubated for 60 minutes at 37 degrees. 10 ul of detection buffer (also prepared as described in the IP-One kit) is added to each well and the plates are incubated for 60 minutes in the dark. The plates are then read in a Perkin Elmer EnVision or equivalent reader able to measure FRET. Fluorescent ratio of emission at 665 and 620 nm is then converted to IP1 concentration by back calculating from an IP1 standard curve prepared at the time of the assay.

[1] = HEK cells stably expressing human GPR40, 15,000 cells per well, CisBio IP-One kit, read-out: Human IP1 (nM), Inositol Phophate Turnover (IP1) Assay 2 EC50 values
[2] = HEK cells stably expressing human GPR40, read-out: EC50 values in the Inositol Phophate Turnover (IP1) Assay 2

T1 sequence (O14842 whole entry): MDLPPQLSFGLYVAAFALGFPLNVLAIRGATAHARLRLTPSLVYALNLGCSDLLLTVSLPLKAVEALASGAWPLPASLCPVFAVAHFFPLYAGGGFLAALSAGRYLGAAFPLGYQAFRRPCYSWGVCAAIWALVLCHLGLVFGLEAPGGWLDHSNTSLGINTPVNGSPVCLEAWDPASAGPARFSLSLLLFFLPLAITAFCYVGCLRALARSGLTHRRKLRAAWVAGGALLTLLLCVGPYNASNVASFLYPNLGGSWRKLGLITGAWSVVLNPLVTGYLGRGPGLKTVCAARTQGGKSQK

SMILES	EC50 [1] [nM]	EC50 [2] [nM]
C[C@H](C(=O)O)[C@H](c1ccc2c(c1)OC(C1CC3(C1)CN(c1ncccc1C(F)(F)F)C3)CC2)C1CC1 (single isomer, unassigned) [Example 1, (2S,3R)-3-cyclopropyl-2-methyl-3-((R or S)-2-(2-(3-(trifluoro-methyl)pyridin-2-yl)-2-azaspiro[3.3]heptan-6-yl)chroman-7-yl)propanoic Acid]	141	< 6500
C[C@H](C(=O)O)[C@H](c1ccc2c(c1)OC(C1[C@@H]3COC[C@H]1CN(Cc1cc(C(F)(F)F)ccc1C(F)(F)F)C3)CC2)C1CC1 (stereo partly drawn) [Example 40, (2S,3R)-3-(2-((1R,5S)-7-(2,5-bis(trifluoromethyl)benzyl)-3-oxa-7-azabicyclo[3.3.1]nonan-9-yl)chroman-7-yl)-3-cyclopropyl-2-methylpropanoic acid]	38.5	< 6500
C[C@H](C(=O)O)[C@H](c1ccc2c(c1)OC(C1CC3(C1)CN(c1ncccc1C(F)(F)F)C3)CC2)C1CC1 (single isomer, unassigned) [Example 2, (2S,3R)-3-cyclopropyl-2-methyl-3-((R or S)-2-(2-(3-(trifluoromethyl)pyridin-2-yl)-2-azaspiro[3.3]heptan-6-yl)chroman-7-yl)propanoic Acid]	156	–
